Like-named read-outs stand apart in the source and are kept apart here.
Tests used:
Gingipain = assay: Inhibition of bacterial virulence factor Gingipain; type: biochemical, P. gingivalis; details: at 200 uM for compounds, 0.001% for oils/extracts
From the text: (§1) P. gingivalis is a gram-negative anaerobe implicated in periodontal disease in humans and companion animals. P. gingivalis infects the gingival sulcus, producing a number of virulence factors including bacterial enzymes such as gingipains, METase and Cystalysin. Gingipains act on several immune system molecules, including kinogens, complement factors, immunoglobins, resulting in fluid influx into the sulcus, neutrophil recruitment, and bleeding. The ultimate result is a host inflammatory response characterized by cyclooxygenase (COX) induction, metalloproteinase (MMP) expression, prostaglandin elevation and reactive oxygen elevations which result in tissue damage and bone resorption, eventually leading to tooth detachment. MMP's (including various subtypes, e.g., MMP 1, 2, 3, 8, 9, 12, 13), are host extracellular matrix proteases that contribute to tissue destruction and remodeling. COX enzymes catalyze the conversion of arachidonic acid into prostaglandins, which result in vasodilation, redness, puffiness and pain.
(§2) Where no data are reported is not an indication that the compound/active has no activity; rather that the compound was not tested for that activity.

METase = METase (Porphyromonas gingivalis, UniProt Q7MX71); assay: Inhibition of bacterial virulence factor METase; type: biochemical, P. gingivalis; details: read-out: METase % inhibition
From the text: as §1
(§3) Inhibition of the proteolytic action of gingipains on immuno-regulatory proteins should lead to a reduction in the inflammatory host-response and subsequent tissue damage. Other bacterial enzymes, for example, METase and Cystalysin, are involved in degrading sulfur-containing amino acids to produce volatile sulfur compounds (VSC's) such as hydrogen sulfide or methyl mercaptan that lead to bad breath or oral malodor. Inhibition of METase and Cystalysin is thus an important function for oral care agents as are inhibitory activities against key host pro-inflammatory factors including matrix metalloproteinases (MMP's), cyclooxygenases (COX) and prostaglandin (PGE2).
as §2

Cystalysin = assay: Inhibition of bacterial virulence factor Cystalysin; type: biochemical, P. gingivalis; details: at 200 uM for compounds, 0.001% for oils/extracts
From the text: as §1, §3, §2

COX-2 = molecular target: T1, COX-2 (Homo sapiens, UniProt P35354); assay: Inhibition of host inflammation factor COX-2; type: biochemical; details: read-out: COX-2 % inhibition
T1 sequence (P35354 18-604): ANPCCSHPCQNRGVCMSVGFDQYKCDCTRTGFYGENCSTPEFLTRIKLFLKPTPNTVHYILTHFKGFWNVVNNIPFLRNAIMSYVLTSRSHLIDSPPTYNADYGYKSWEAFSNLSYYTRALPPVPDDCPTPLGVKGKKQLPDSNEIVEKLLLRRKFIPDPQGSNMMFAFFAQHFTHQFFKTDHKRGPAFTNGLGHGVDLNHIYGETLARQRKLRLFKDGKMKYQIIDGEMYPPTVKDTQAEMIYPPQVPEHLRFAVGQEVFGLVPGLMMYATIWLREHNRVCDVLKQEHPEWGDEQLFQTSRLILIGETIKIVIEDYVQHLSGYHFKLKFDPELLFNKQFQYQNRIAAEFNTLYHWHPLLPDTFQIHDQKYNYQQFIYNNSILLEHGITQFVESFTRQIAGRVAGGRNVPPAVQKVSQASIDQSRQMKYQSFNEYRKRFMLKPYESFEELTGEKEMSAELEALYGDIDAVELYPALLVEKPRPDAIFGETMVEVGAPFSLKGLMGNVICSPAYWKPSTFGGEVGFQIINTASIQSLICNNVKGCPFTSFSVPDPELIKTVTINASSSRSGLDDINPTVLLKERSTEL
From the text: as §1, §2

MMP (2, 3, 12) = assay: Inhibition of host inflammation factor MMP (2, 3, 12); type: biochemical; details: at 200 uM for compounds, 0.001% for oils/extracts
From the text: as §1, §2

PGE2 = assay: Inhibition of host inflammation factor PGE2; type: cell-based; details: read-out: PGE2 % inhibition
From the text: as §3, §2

[1] = system: oral anaerobic bacterial biofilm containing Fusobacterium nucleatum; assay: In vitro biofilm growth inhibition model (30 second exposure, MIC); type: cell-based; details: lowest concentration that completely inhibited biofilm growth following a 30 second exposure
Procedure: The method involves forming a bacterial biofilm in a plastic uncoated 12-well tissue culture plate. The culture material is removed from the wells and the biofilm is treated with a test solution or appropriate control usually for 30 seconds. Subsequently, the biofilm is washed twice with sterile saline and fresh medium is placed on the biofilm which is then incubated at 37° C. overnight. The next day, the culture in each well is suspended and the optical density determined to assess biofilm growth.

[2] = system: Total Facultative Anaerobes (TFA); assay: Plaque Chip Assay (PCA), Total Facultative Anaerobes count; type: cell-based, oral bacteria from whole saliva of healthy human donors; details: vs. water
Procedure: (§4) In further studies, individual essential oil compounds and blends were evaluated for germ kill efficacy against oral anaerobes. For comparison, a cetyl pyridinium chloride solution (350 ppm) and a commercially available essential oil mouthrinse (Listerine® Cool Mint with ˜0.258% essential oil level) were tested.
(§5) Aqueous solutions (comprising 1% poloxamer 407 and 15% ethanol) were prepared with the essential oil load fixed at 0.15%. […] The test solutions were used neat in this experiment. The essential oil compounds and blends were tested using the Plaque Chip Assay (PCA) method, developed in the Procter & Gamble laboratories. The PCA method measures a combination of the following parameters: antibacterial efficacy (bacteria or germ kill), biofilm dispersion efficacy/chemical removal (chemical cleaning, e.g., detergency without germ kill), biofilm prevention and/or inhibition efficacy (prevention of biofilm growth) and active substantivity (cumulative efficacy).
(§6) The PCA method uses unmodified, whole saliva (obtained from multiple healthy human donors) to grow a biofilm containing relevant oral species on the surface of hydroxyapatite (HA) discs (the ‘chip’) mounted in the cap of plastic tubes (Nunc™ Cryovial). HA chips are subjected to five one-minute treatment and re-growth cycles, designed to mimic typical oral care product usage (dentifrice, rinse, gel) over a 2½ day period. Fresh saliva is replaced after each treatment, wherein the saliva used serves both as an inoculum of relevant oral bacteria, and as a nutrient source for the growth of the biofilm. Sixteen hours after the final treatment cycle, the biofilm remaining on the chip is removed, and the number of viable bacteria contained within it are measured by standard agar plate counting on ETSA (Enriched Trypticase Soy Agar) and ETSA-NV (Enriched Trypticase Soy Agar Supplemented with Nalidixic Acid and Vancomycin) media. The number of colony forming units per unit volume (cfu/ml) is measured for Total Facultative Anaerobes (TFA) and Gram Negative Anaerobes (GNA). Results are summarized in Table 3 below reported as Log Reduction in TFA and GNA colony forming units provided by test formulations vs. control, i.e., water or base aqueous solution (comprising 1% poloxamer 407 and 15% ethanol). Reductions in TFA or GNA bacterial counts vs. control are reasonably predictive of in vivo efficacy, in particular plaque removal efficacy and breath malodor reduction. […] Particularly for blends containing 3 or more components, the relative amounts of each component can be adjusted to provide the best germ kill efficacy along with the desired flavor profile.

[3] = system: Gram Negative Anaerobes (GNA); assay: Plaque Chip Assay (PCA), Gram Negative Anaerobes count; type: cell-based, oral bacteria from whole saliva of healthy human donors; details: vs. water
Procedure: as §4, §5, §6

COX-1 = COX-1 (Homo sapiens, UniProt P23219); assay: Inhibition of host inflammation factor COX-1; type: biochemical; details: at 200 uM for compounds, 0.001% for oils/extracts
[4] = essential oil at 0.15% solution, five one-minute treatments
[5] = at 200 uM for compounds, 0.001% for oils/extracts

METase, sequence (Q7MX71 whole entry): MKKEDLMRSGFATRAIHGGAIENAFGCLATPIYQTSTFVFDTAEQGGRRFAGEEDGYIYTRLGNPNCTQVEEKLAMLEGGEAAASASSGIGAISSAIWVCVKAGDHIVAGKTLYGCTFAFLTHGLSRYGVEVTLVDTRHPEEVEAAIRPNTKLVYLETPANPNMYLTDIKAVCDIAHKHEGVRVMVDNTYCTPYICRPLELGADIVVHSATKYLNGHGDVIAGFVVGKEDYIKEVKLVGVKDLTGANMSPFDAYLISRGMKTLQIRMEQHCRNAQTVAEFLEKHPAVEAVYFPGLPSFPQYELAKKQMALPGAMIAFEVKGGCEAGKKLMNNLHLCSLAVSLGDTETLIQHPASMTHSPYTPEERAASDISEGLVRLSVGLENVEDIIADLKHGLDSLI
COX-1, sequence (P23219 24-599): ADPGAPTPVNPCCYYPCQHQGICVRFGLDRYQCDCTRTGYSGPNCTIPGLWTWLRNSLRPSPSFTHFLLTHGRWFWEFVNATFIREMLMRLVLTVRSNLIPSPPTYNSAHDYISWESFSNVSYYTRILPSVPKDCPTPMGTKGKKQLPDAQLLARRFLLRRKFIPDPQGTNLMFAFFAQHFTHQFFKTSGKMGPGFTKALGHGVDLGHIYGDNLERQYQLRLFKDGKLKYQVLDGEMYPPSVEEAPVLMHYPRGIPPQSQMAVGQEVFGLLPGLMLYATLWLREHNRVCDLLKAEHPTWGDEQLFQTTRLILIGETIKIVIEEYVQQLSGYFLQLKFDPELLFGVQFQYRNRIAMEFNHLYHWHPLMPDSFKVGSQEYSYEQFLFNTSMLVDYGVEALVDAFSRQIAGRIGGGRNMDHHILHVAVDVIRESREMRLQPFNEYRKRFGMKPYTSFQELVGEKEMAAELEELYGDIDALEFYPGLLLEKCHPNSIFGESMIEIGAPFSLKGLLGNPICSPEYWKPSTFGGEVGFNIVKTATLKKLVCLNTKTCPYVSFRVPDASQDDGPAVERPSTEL

Row | SMILES | Gingipain % inhibition (Gingipain) | inhibition at 200 µM (METase) [%] | Cystalysin % inhibition (Cystalysin) | inhibition at 200 µM (COX-2) [%] | MMP (2, 3, 12) % inhibition (MMP (2, 3, 12)) | inhibition at 200 µM (PGE2) [%] | Total Oil Level Inhibiting Biofilm Growth (MIC), single component [1] [%] | Log Reduction in cfu/ml vs Control, TFA [2, 4] [log cfu/ml] | Log Reduction in cfu/ml vs Control, GNA [3, 4] [log cfu/ml] | Log Reduction in cfu/ml vs Control, TFA ([2]; 350 ppm solution) [log cfu/ml] | Log Reduction in cfu/ml vs Control, GNA ([3]; 350 ppm solution) [log cfu/ml] | inhibition at 200 µM (PGE2; [5]) [%] | inhibition at 200 µM (COX-1) [%] | inhibition at 200 µM (COX-2; [5]) [%]
1 | Cc1ccc(C(C)C)cc1O [Carvacrol] | + (% inhibition <25% at 200 uM for compounds, 0.001% for oils/extracts) | < 25 | + (% inhibition <25% at 200 uM for compounds, 0.001% for oils/extracts) | > 25 | + (% inhibition <25% at 200 uM for compounds, 0.001% for oils/extracts) | > 75 | 0.1 | 0.08 | 0.42 | – | – | – | – | –
2 | CCCCCCCCCCCCCCCC[n+]1ccccc1 [Cetylpyridinium Chloride (CPC), Cetylpyridinium Chloride, reference compound] | – | – | – | – | – | – | – | – | – | 1.45 | 1.31 | – | – | –
3 | CC(C)=CCCC(C)=CC=O [Citral] | + (% inhibition <25% at 200 uM for compounds, 0.001% for oils/extracts) | < 25 | – | – | + (% inhibition <25% at 200 uM for compounds, 0.001% for oils/extracts) | – | 0.2 | 0.33 | 0.72 | – | – | > 50 | – | –
4 | CC12CCC(CC1)C(C)(C)O2 [Eucalyptol] | + (% inhibition <25% at 200 uM for compounds, 0.001% for oils/extracts) | < 25 | + (% inhibition <25% at 200 uM for compounds, 0.001% for oils/extracts) | – | + (% inhibition <25% at 200 uM for compounds, 0.001% for oils/extracts) | – | 0.1 | −0.06 | 0.38 | – | – | > 75 | – | –
5 | C=CCc1ccc(O)c(OC)c1 [Eugenol] | + (% inhibition <25% at 200 uM for compounds, 0.001% for oils/extracts) | < 25 | + (% inhibition <25% at 200 uM for compounds, 0.001% for oils/extracts) | > 25 | + (% inhibition <25% at 200 uM for compounds, 0.001% for oils/extracts) | > 75 | 0.2 | 0.09 | 0.70 | – | – | – | – | –
6 | CC(C)=CCC/C(C)=C/CO [Geraniol] | – | < 25 | + (% inhibition <25% at 200 uM for compounds, 0.001% for oils/extracts) | – | + (% inhibition <25% at 200 uM for compounds, 0.001% for oils/extracts) | – | 0.1 | 0.47 | 0.60 | – | – | > 25 | > 50 | > 25
7 | Cc1ccc(C(C)C)c(O)c1 [Thymol, reference compound] | – | – | – | – | – | – | 0.1 | – | – | – | – | – | – | –

From US20080253976A1, “Personal Care Compositions Comprising An Antimicrobial Blend of Essential Oils or Constituents Thereof” (priority 2007, published 2008)
